Source: patent US7754866B2 (Arena Pharmaceuticals, Inc., priority 1997, dated 2010)
“And” between values parts separate entries of the source, which are not always exact repeats. Equal values may be shown once. Read-outs that look alike come from different tables or passages of the source.

How the values were obtained:
[1] = molecular target: T1, human mutated 5HT2A receptor, AP-3 (Homo sapiens, UniProt P28223, T25N); experiment: Inositol phosphate accumulation assay, AP-3; assay type: cell-based; conditions: for remaining activity at 10 µM: read-out: IP3 % of Control;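 on all read-outs here: transfected 293 cells prelabeled with 3H-inositol, exposed to compound 120 min at 37 °C with LiCl and pargyline, inositol trisphosphates isolated by anion exchange and counted by scintillation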
T1 construct: Inositol Phosphate Accumulation AP-3 IC50 Value (nM); other: several concentrations; IP3 % of Control; other: one concentration of 10 μM, triplicate; control without test compound

[2] = molecular target: T2, wild type human 5HT2A receptor (Homo sapiens, UniProt P28223); experiment: Competitive binding assay, [3H]LSD, WT 5HT2A
T2 construct: expressed in transfected cells; host or cells: COS-7 cells, pCMV vector

[3] = one concentration of 10 μM, triplicate, control without test compound
[4] = competitive binding using LSD, read-out: WT 5HT2A LSD IC50
[5] = several concentrations, read-out: IP3 AP-3 IC50

T2 sequence (P28223 whole entry T25N/H452Y): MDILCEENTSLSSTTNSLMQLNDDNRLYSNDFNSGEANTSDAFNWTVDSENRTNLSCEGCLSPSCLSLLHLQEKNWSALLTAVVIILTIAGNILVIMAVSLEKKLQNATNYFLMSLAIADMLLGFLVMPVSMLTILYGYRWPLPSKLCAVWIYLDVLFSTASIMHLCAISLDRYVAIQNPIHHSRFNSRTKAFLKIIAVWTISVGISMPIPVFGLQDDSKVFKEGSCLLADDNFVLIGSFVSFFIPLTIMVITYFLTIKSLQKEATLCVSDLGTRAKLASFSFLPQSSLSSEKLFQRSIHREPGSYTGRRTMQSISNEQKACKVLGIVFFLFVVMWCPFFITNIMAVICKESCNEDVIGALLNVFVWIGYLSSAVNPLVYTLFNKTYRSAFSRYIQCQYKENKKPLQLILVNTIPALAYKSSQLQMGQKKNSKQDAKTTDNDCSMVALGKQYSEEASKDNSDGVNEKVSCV
T1 sequence (P28223 whole entry T25N, looked up): as the sequence (P28223 whole entry T25N/H452Y) above, with Y452H counted along it

Cn1cc(Br)c(-c2cccc(NC(=O)Nc3ccccc3OC(F)(F)F)c2)n1 [Compound 116087, {[3-(4-bromo-1-methylpyrazol-3-yl)phenyl]-amino}-N-[2-(trifluoromethoxy)phenyl]carboxamide]
remaining activity at 10 µM [1, 3]: 11%
IC50 [2, 4]: 200 nM

Cn1cc(Br)c(-c2cccc(NC(=O)Nc3ccc(OC(F)(F)F)cc3)c2)n1 [Compound 103487, N-[3-(4-bromo-1-methylpyrazol-3-yl)phenyl][{(4-trifluoromethoxy)phenyl}amino]carboxamide]
IC50 ([1]; read-out: Inositol Phosphate Accumulation AP-3 IC50 Value): 0.052 µM and 0.09 µM
IC50 ([2]; 1 nM [3H]LSD, COS7 membranes, read-out: Competitive Binding WT 5HT2A ([3H]LSD) IC50 Value): 46 nM

Cn1cc(Br)c(-c2cccc(NC(=O)Nc3ccc(F)cc3)c2)n1 [Compound 116082, {[3-(4-bromo-1-methylpyrazol-3-yl)phenyl]-amino}-N-(4-fluorophenyl)carboxamide]
remaining activity at 10 µM [1]: 11%
difference in selectivity preference (IC50 values) for the 5HT2A receptor compared with the 5HT2C receptor ([2]; 5HT2A versus 5HT2C): 100 fold
IC50 [2, 4]: 7 nM

Cn1cc(Br)c(-c2cccc(NC(=O)Nc3ccccc3Cl)c2)n1 [Compound 116108, {[3-(4-bromo-1-methylpyrazol-3-yl)phenyl]-amino}-N-[2-chlorophenyl)carboxamide]
remaining activity at 10 µM [1, 3]: 6%
IC50 [2, 4]: 249 nM

COc1ccc(NC(=O)Nc2cccc(-c3nn(C)cc3Br)c2)cc1 [Compound 116091, {[3-(4-bromo-1-methylpyrazol-3-yl)phenyl]-amino}-N-(4-methoxyphenyl)carboxamide]
remaining activity at 10 µM [1]: 12%
IC50 [2, 4]: 19 nM

Cn1cc(Br)c(-c2cccc(NC(=O)Cc3ccc([N+](=O)[O-])cc3)c2)n1 [Compound 116177, N-[3-(4-bromo-1-methylpyrazol-3-yl)phenyl]-2-(4-nitrophenyl)acetamide]
IC50 [1, 5]: 0.061 µM
IC50 [2, 4]: 108 nM

Cn1cc(Br)c(-c2cccc(NC(=O)NCc3ccc(F)cc3)c2)n1 [Compound 116182, N-[3-(4-bromo-1-methylpyrazol-3-yl)phenyl]-[{(4-fluorophenyl)methyl}amino]carboxamide]
IC50 [1, 5]: 0.089 µM
IC50 [2, 4]: 132 nM

COc1cccc(NC(=O)Nc2cccc(-c3nn(C)cc3Br)c2)c1 [Compound 116111, {[3-(4-bromo-1-methylpyrazol-3-yl)phenyl]-amino}-N-(3-methoxyphenyl)carboxamide]
remaining activity at 10 µM [1, 3]: 7%
IC50 [2, 4]: 106 nM

CC(C)c1ccc(NC(=O)Nc2cccc(-c3nn(C)cc3Br)c2)cc1 [Compound 116110, {[3-(4-bromo-1-methylpyrazol-3-yl)phenyl]amino}-N-[4-(methylethyl)phenyl]carboxamide]
IP3 % of Control [1, 3]: 7%
IC50 [2, 4]: 338 nM

Cn1cc(Br)c(-c2cccc(NC(=O)NC3CCCCC3)c2)n1 [Compound 116141, N-[3-(4-bromo-1-methylpyrazol-3-yl)phenyl]-[cyclohexylamino]carboxamide]
IC50 [1, 5]: 0.114 µM
IC50 [2, 4]: 81 nM

Cn1cc(Br)c(-c2cccc(NC(=O)Nc3cccc(Cl)c3)c2)n1 [Compound 116105, {[3-(4-bromo-1-methylpyrazol-3-yl)phenyl]-amino}-N-(3-chlorophenyl)carboxamide]
remaining activity at 10 µM [1]: 11%
IC50 [2, 4]: 39 nM

COc1ccccc1CC(=O)Nc1cccc(-c2nn(C)cc2Br)c1 [Compound 116178, N-[3-(4-bromo-1-methylpyrazol-3-yl)phenyl]-2-(2-methoxyphenyl)acetamide]
IC50 [1, 5]: 0.165 µM
IC50 [2, 4]: 2300 nM

Cn1cc(Br)c(-c2cccc(NC(=O)Nc3ccc(SC(F)(F)F)cc3)c2)n1 [Compound 116139, {[3-(4-bromo-1-methylpyrazol-3-yl)phenyl]-amino}-N-[4-(trifluoromethylthio)phenyl]carboxamide]
remaining activity at 10 µM [1]: 12%
IC50 [2, 4]: 56 nM

Cc1cccc(NC(=O)Nc2cccc(-c3nn(C)cc3Br)c2)c1 [Compound 116112, [{3-(4-bromo-1-methylpyrazol-3-yl)phenyl}-amino]-N-(3-methylphenyl)carboxamide]
remaining activity at 10 µM [1]: 14%
IC50 [2, 4]: 57 nM

Cn1cc(Br)c(-c2cccc(NC(=O)Nc3ccc(C#N)cc3)c2)n1 [Compound 116147, {[3-(4-bromo-1-methylpyrazol-3-yl)phenyl]-amino}-N-(4-cyanophenyl)carboxamide]
remaining activity at 10 µM [1]: 12%
IC50 [2, 4]: 2 nM

COc1ccc(CNC(=O)Nc2cccc(-c3nn(C)cc3Br)c2)cc1OC [Compound 116183, N-[3-(4-bromo-1-methylpyrazol-3-yl)phenyl]-[{(3,4-dimethoxyphenyl)methyl}amino-]carboxamide]
IC50 [2, 4]: 1010 nM

Cn1cc(Br)c(-c2cccc(NC(=O)OC(C)(C)C)c2)n1 [Compound 116192]
IC50 ([1]; Inositol Phosphate Accumulation AP-3 IC50 Value (μM)): 0.057 µM
IC50 [2]: 14 nM

Cn1cc(Br)c(-c2cccc(NC(=O)Cc3ccccc3F)c2)n1 [Compound 116176, N-[3-(4-bromo-1-methylpyrazol-3-yl)phenyl]-2-(2-fluorophenyl)acetamide]
IC50 [1, 5]: 0.129 µM
IC50 [2, 4]: 662 nM

Cc1c(Cl)cc(NC(=O)Nc2cccc(-c3nn(C)cc3Br)c2)cc1Cl [Compound 116138, N-(3,5-dichloro-4-methylphenyl){[3-(4-bromo-1-methylpyrazol-3-yl)phenyl]amino}carboxamide]
remaining activity at 10 µM [1, 3]: 23%
IC50 [2, 4]: 122 nM

Cn1cc(Br)c(-c2cccc(NC(=O)Nc3ccc(C(C)(C)C)cc3)c2)n1 [Compound 116119, N-[4-(tert-butyl)phenyl]{[3-(4-bromo-1-methylpyrazol-3-yl)phenyl]amino}carboxamide]
remaining activity at 10 µM [1, 3]: 17%
IC50 [2, 4]: 476 nM

Cn1cc(Br)c(-c2cccc(NC(=O)Nc3ccccc3C(N)=O)c2)n1 [Compound 116145, 2-({[3-(4-bromo-1-methylpyrazol-3-yl)phenyl]-amino}carbonylamino)benzamide]
remaining activity at 10 µM [1, 3]: 31%
IC50 [2, 4]: 7470 nM

Cc1ccccc1CNC(=O)Nc1cccc(-c2nn(C)cc2Br)c1 [Compound 116185, N-[3-(4-bromo-1-methylpyrazol-3-yl)phenyl][{(2-methylphenyl)methyl}amino]carboxamide]
IC50 [2, 4]: 769 nM

Cn1cc(Br)c(-c2cccc(NC(=O)Nc3ccccc3F)c2)n1 [Compound 116144, {[3-(4-bromo-1-methylpyrazol-3-yl)phenyl]-amino}-N-(2-fluorophenyl)carboxamide]
remaining activity at 10 µM [1]: 12%
IC50 [2, 4]: 37 nM

Cn1cc(Br)c(-c2cccc(NC(=O)NCc3ccccc3)c2)n1 [Compound 116143, N-[3-(4-bromo-1-methylpyrazol-3-yl)phenyl]-[phenylmethylamino]carboxamide]
IC50 [1, 5]: 0.12 µM
IC50 [2, 4]: 47 nM

COc1ccc(CNC(=O)Nc2cccc(-c3nn(C)cc3Br)c2)cc1 [Compound 116189, N-[3-(4-bromo-1-methylpyrazol-3-yl)phenyl][{(4-methoxyphenyl)methyl}amino]carboxamide]
IC50 [2, 4]: 102 nM

Cn1cc(Br)c(-c2cccc(NC(=O)Cc3ccc(OC(F)(F)F)cc3)c2)n1 [Compound 116137, N-[3-(4-bromo-1-methylpyrazol-3-yl)phenyl]-2-[4-(trifluoromethoxy)-phenyl]acetamide]
IC50 [2, 4]: 106 nM

CN(C)c1ccc(NC(=O)Nc2cccc(-c3nn(C)cc3Br)c2)cc1 [Compound 116122, N-[4-(dimethylamino)phenyl]{[3-(4-bromo-1-methylpyrazol-3-yl)phenyl]amino}carboxamide]
remaining activity at 10 µM [1, 3]: 9%
IC50 [2, 4]: 309 nM

COc1ccc(CCNC(=O)Nc2cccc(-c3nn(C)cc3Br)c2)cc1 [Compound 116194, N-[3-(4-bromo-1-methylpyrazol-3-yl)phenyl][{2-(4-methoxyphenyl)ethyl}amino]carboxamide]
IC50 [1, 5]: 0.032 µM
IC50 [2, 4]: 61 nM

Cc1ccccc1NC(=O)Nc1cccc(-c2nn(C)cc2Br)c1 [Compound 116092, {[3-(4-bromo-1-methylpyrazol-3-yl)phenyl]amino}-N-(2-methylphenyl)carboxamide]
remaining activity at 10 µM [1, 3]: 32%
IC50 [2, 4]: 131 nM

COc1cccc(CC(=O)Nc2cccc(-c3nn(C)cc3Br)c2)c1 [Compound 116175, N-[3-(4-bromo-1-methylpyrazol-3-yl)phenyl]-2-(3-methoxyphenyl)acetamide]
IC50 [1, 5]: 0.108 µM
IC50 [2, 4]: 625 nM

Cn1cc(Br)c(-c2cccc(NC(=O)Cc3cccc(F)c3)c2)n1 [Compound 116174, N-[3-(4-bromo-1-methylpyrazol-3-yl)phenyl]-2-(3-fluorophenyl)acetamide]
IC50 [1, 5]: 0.153 µM
IC50 [2, 4]: 318 nM

CSc1ccc(NC(=O)Nc2cccc(-c3nn(C)cc3Br)c2)cc1 [Compound 116079, N-[3-(4-bromo-1-methylpyrazol-3-yl)phenyl][(4-methylthiophenyl)amino]carboxamide]
remaining activity at 10 µM [1]: 16%
IC50 [1, 5]: 0.017 µM
IC50 [2, 4]: 4 nM

Cn1cc(Br)c(-c2cccc(NC(=O)Nc3ccccc3[N+](=O)[O-])c2)n1 [Compound 116089, {[3-(4-bromo-1-methylpyrazol-3-yl)phenyl]-amino}-N-(2-nitrophenyl)carboxamide]
remaining activity at 10 µM [1, 3]: 27%
IC50 [2, 4]: 238 nM

Cn1cc(Br)c(-c2cccc(NC(=O)Nc3ccccc3C#N)c2)n1 [Compound 116148, {[3-(4-bromo-1-methylpyrazol-3-yl)phenyl]-amino}-N-(2-cyanophenyl)carboxamide]
remaining activity at 10 µM [1, 3]: 30%
IC50 [2, 4]: 348 nM

COc1cc(CNC(=O)Nc2cccc(-c3nn(C)cc3Br)c2)cc(OC)c1OC [Compound 116184, N-[3-(4-bromo-1-methylpyrazol-3-yl)phenyl]-[{(3,4,5-trimethoxyphenyl)methyl}amino]-carboxamide]
IC50 [2, 4]: 2960 nM
